These results are taken from patent publication US20080305118A1, “Treatment Of Type 1 Diabetes With Inhibitors Of Macrophage Migration Inhibitory Factor” (The Feinstein Institute for Medical Research, priority 2004, published 2008).

For one assay, the target named is T1, MIF tautomerase (Homo sapiens, UniProt P14174).
T1 sequence (P14174 2-115 limits assumed): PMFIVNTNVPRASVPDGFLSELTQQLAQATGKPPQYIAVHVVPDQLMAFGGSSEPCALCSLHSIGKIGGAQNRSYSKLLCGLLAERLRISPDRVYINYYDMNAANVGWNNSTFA
Particulars: reference (20); cited from earlier work.

Assay [1] deals with pancreatic islets of MLD-STZ diabetic mice. The experiment in a line: Histological examination of pancreas, insulitis score. As to conditions: CBA/H mice; day 15; FIG. 2D. Format: in vivo, mouse. Here is the method:
Histological and immunohistochemical examination of pancreas. Pancreata were fixed in neutral buffered formalin and then embedded in paraffin. The fixed blocks were sectioned (7 μm thick) and haematoxylin and eosin staining was performed to assess the incidence and degree of inflammatory changes. Insulitis scoring was performed as previously described (10, 11) by examining at least 15 islets per mouse and graded in a blinded fashion as follows: 0, no infiltrate; 1, peri-ductal infiltrate; 2, peri-islet infiltrate; 3, intraislet infiltrate; and 4, intraislet infiltrate associated with β-cell destruction. At least 15 islets were counted for each mouse. A mean score for each pancreas was calculated by dividing the total score by the number of islets examined. Insulitis scores (IS) are expressed as mean values±SD. Immunohistochemistry was performed on paraffin-embedded sections of formalin-fixed tissue using a previously described microwave-based method (24). For MIF immunostaining, a polyclonal rabbit anti-MIF IgG and control rabbit IgG were used. The examined area of the islet was outlined, and the percentage of MIF-positive islet cells was measured using quantitative Image Analysis System (Optima 6.5, Media Cybernatics, Silver Springs, Md.).

The test system of another assay is TNF-α. In words: Ex vivo TNF-α production, L929 cytolytic bioassay of culture supernatants. Format: in vivo, mouse. As to conditions: day 15, 48 h culture, FIG. 4. The protocol: Cell incubation and determination of pro-inflamatory mediators. Resident peritoneal cells (PC), spleen mononuclear cells (SMNC), and pancreatic islets were isolated from individual anti-MIF IgG-treated, ISO-1-treated or control diabetic mice on day 15 after the first injection of STZ, as well as from normal untreated animals. SMNC (5×10^6/well) prepared by Ficoll gradient centrifugation, resident PC (2.5×10^5/well) collected by peritoneal lavage with cold PBS, or pancreatic islets (150-200 islets/well) prepared by collagenase digestion and density gradient purification as described (22), were incubated in 24-well Limbro culture plates in 1 ml of RPMI-1640 culture medium containing 5% fetal bovine serum (FBS) and cell supernatants were collected after 48 h. Concentration of bioactive TNF-α in culture supernatant was determined as previously described (22) using a cytolytic bioassay with actinomycin D-treated fibrosarcoma cell line L929. Nitrite accumulation, an indicator of NO production, was determined in cell culture supernatant using the Griess reaction (22). The expression of intracellular MIF, IFN-γ, MHC II, or iNOS was determined by slight modification of cell-based ELISA protocol (23). Spleen MNC (5×10^5/well) or PC (2.5×10^5/well), were allowed to adhere to poly-L-lysine-precoated 96-well microplates. Following fixation with 4% paraformaldehyde, and washing with 0.1% Triton X-100 in PBS (T/PBS), endogenous peroxidase was quenched with 1% H2O2 in T/PBS, and reaction blocked for 1 h at 37° C. with 10% FBS in T/PBS. […] After washing, the cells were incubated for 1 h with the corresponding secondary antibody (goat anti-rabbit Ig(H+L)-HRP, goat anti-rat Ig(H+L)-HRP or goat anti-mouse Ig(F(ab′)2-specific)-HRP washed again and incubated for 15 min at room temperature in dark with 50 μl of a solution containing 0.4 mg/ml OPD (Sigma), 11.8 mg/ml Na2HPO4×2H2O, 7.3 mg/ml citric acid and 0.015% H2O2. The reaction was stopped with 3N HCl, and the absorbance was measured in a microplate reader at 492 nm in a Titertek microplate reader (Flow).

Assay [2] relates to spleen mononuclear cells (SMNC). In words: Ex vivo lymphoproliferative response (3H-thymidine incorporation) after in vivo treatment. Particulars: CBA/H mice treated in vivo; splenocytes day 15 after MLD-STZ; FIG. 3A. Also on record: species or system mouse. The protocol:
(§1) Ex vivo lymphoproliferative response and adhesion assay. Spontaneous proliferation of SMNC was determined by incubation of cells (5×10^5/well) from each individual animal in 96-well microplates with 1 μCi ^3H-thymidine (^3H-TdR, ICN). Incorporated radioactivity was measured after 24 h in a Beckman liquid scintillation counter. The analysis of spontaneous adhesion of SMNC (2.5×10^5/well) to a monolayer of L929 fibroblasts or plastic was performed by using crystal violet assay as previously described (21). The absorbance corresponding to the number of adherent cells, was measured at 570 nm.

In another assay the test system is iNOS. In words: Intracellular iNOS expression, cell-based ELISA. As to conditions: macrophages from treated animals vs diabetic animals; FIG. 5A. Format: in vivo, mouse. Here is the method: Cell incubation and determination of pro-inflamatory mediators. Resident peritoneal cells (PC), spleen mononuclear cells (SMNC), and pancreatic islets were isolated from individual anti-MIF IgG-treated, ISO-1-treated or control diabetic mice on day 15 after the first injection of STZ, as well as from normal untreated animals. […] Concentration of bioactive TNF-α in culture supernatant was determined as previously described (22) using a cytolytic bioassay with actinomycin D-treated fibrosarcoma cell line L929. Nitrite accumulation, an indicator of NO production, was determined in cell culture supernatant using the Griess reaction (22). The expression of intracellular MIF, IFN-γ, MHC II, or iNOS was determined by slight modification of cell-based ELISA protocol (23). […] After washing, the cells were incubated for 1 h with the corresponding secondary antibody (goat anti-rabbit Ig(H+L)-HRP, goat anti-rat Ig(H+L)-HRP or goat anti-mouse Ig(F(ab′)2-specific)-HRP washed again and incubated for 15 min at room temperature in dark with 50 μl of a solution containing 0.4 mg/ml OPD (Sigma), 11.8 mg/ml Na2HPO4×2H2O, 7.3 mg/ml citric acid and 0.015% H2O2. The reaction was stopped with 3N HCl, and the absorbance was measured in a microplate reader at 492 nm in a Titertek microplate reader (Flow).

The subject of assay [3] is spleen mononuclear cells (SMNC). In words: Ex vivo spontaneous adhesion assay (crystal violet) after in vivo treatment. Also on record: species or system mouse. As to conditions: SMNC from mice treated in vivo, FIG. 3B. The protocol:
as §1

The subject of assay [4] is MLD-STZ-induced diabetic mice. The experiment in a line: MLD-STZ-induced diabetes, weekly blood glucose, prophylactic treatment. Format: in vivo, mouse. As to conditions: CBA/H mice; prophylactic i.p. treatment; FIG. 2B. Here is the method: Diabetes induction and in vivo treatments. Diabetes was induced in adult male mice with multiple subtoxic doses of streptozotocin (MLD-STZ, 40 mg/kg body wt/day i.p. for five consecutive days) as described (21). The impact of polyclonal antibody against MIF was studied by i.p. injection of mice (5-10 per treatment group) with 5 mg/kg of rabbit IgG antibody against mouse […] on days −3, −1, 2 and 5 in relation to the first STZ dose. The effect of ISO-1 was studied by i.p. injection of the drug at a dose of 1 mg/mouse/day, for 14 consecutive days, starting 3 days prior to the first injection with STZ. Control animals received either nonimmune IgG or ISO-1 diluent (DMSO/H2O). Mice were monitored for diabetes by weekly measurement of blood glucose levels using a glucometer (Sensimac®, Imaco, Ludersdorf, Germany). Clinical diabetes was defined by hyperglycemia in non-fasted animals (blood glucose over 11.8 mmol/l).

[5] abbreviates: cells from mice treated in vivo.

As to `COC(=O)C[C@@H]1CC(c2ccc(O)cc2)=NO1` (racemic) [ISO-1, (S,R)-3-(4-hydroxyphenyl)-4,5-dihydro-5-isoxazole acetic acid methyl ester], the “MIF tautomerase and biological activity” value on MIF tautomerase is given as “inhibits”. In addition, the “degree of islet infiltration (insulitis)” value in assay [1] was “attenuated inflammation of the islets”. In the assay on TNF-α (setting [5]), the “TNF-α production by peritoneal macrophages” value was “down-regulated” and the “TNF-α production by spleen MNC” value is recorded as “down-regulated”. Further, the “TNF-α production by pancreatic islet cells” value in the assay on TNF-α (islets from mice treated in vivo) is “down-regulated”. Further, in assay [2], the “SMNC proliferation, 3H-thymidine incorporation” value worked out at 25637±2018 cpm. Further, the “intracellular expression of iNOS in macrophages” value in the assay with iNOS is reported as “significantly reduced”. The “spontaneous adhesion of SMNC to plastic” value in assay [3] is reported as “significantly inhibited”. Also, the “adhesion of SMNC to fibroblasts” value in assay [3] (L929 fibroblasts) is reported as “significantly inhibited”. Besides, the “MLD-STZ-induced hyperglycemia (blood glucose levels)” value in assay [4] was “remained euglycemic”.
